The test system of one assay is ERK1/2 phosphorylation in Panc-1 cells. Briefly: Western ERK1/2 cell-based phosphorylation assay. The arrangement: species or system human. The following applies: at 10 μM, values in brackets < > are activation %, not inhibition. The method, boiled down: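 Panc-1 cells starved overnight in 0.5% FBS, then exposed 6 h at 37 °C to compound at 10 μM final (0.3% DMSO) or serial dilutions for IC50. Stimulation with 1.5 ng/ml EGF for 15 min; phospho-ERK1/2 (Thr202/Tyr204) read by western blot on equal protein loads.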
As to `CO[C@H]1CC[C@@H](Nc2nc(-c3nccn3C)nc3sc(-c4cn(C)cn4)c(-c4ccccc4)c23)C1` (racemic) [Example 3, Rac-N-((1R,3S)-3-methoxycyclopentyl)-2-(1-methyl-1H-imidazol-2-yl)-6-(1-methyl-1H-imidazol-4-yl)-5-phenylthieno[2,3-d]pyrimidin-4-amine], the “% inh of ERK1/2 phosphorylation in PANC-1” value was “A (1-25% inhibition)”.
On the same count and under the same terms, the value for `CO[C@H]1C[C@@H](Nc2nc(-c3nccn3C)nc3sc(-c4cn(C)cn4)c(-c4ccccc4)c23)C1` [Example 2, N-((1s,3s)-3-methoxycyclobutyl)-2-(1-methyl-1H-imidazol-2-yl)-6-(1-methyl-1H-imidazol-4-yl)-5-phenylthieno[2,3-d]pyrimidin-4-amine] was “C (51-75% inhibition)”.
The same measure, in the same setting: to `COCCn1c(-c2nc(O)c3scc(-c4ccccn4)c3n2)nc2ccccc21` [Compound 87, 2-(1-(2-Methoxyethyl)-1H-benzo[d]imidazol-2-yl)-7-(pyridin-2-yl)thieno[3,2-d]pyrimidin-4-ol] belongs “A (1-25% inhibition)”.
Same read-out and setting: the value for `Oc1nc(-c2ccncn2)nc2c(-c3ccccn3)csc12` [Compound 88, 7-(Pyridin-2-yl)-2-(pyrimidin-4-yl)thieno[3,2-d]pyrimidin-4-ol] was “<B>”.
For the molecule `Cn1ccc(-c2nc(O)c3scc(-c4ccccn4)c3n2)n1` [Compound 90, 2-(1-Methyl-1H-pyrazol-3-yl)-7-(pyridin-2-yl)thieno[3,2-d]pyrimidin-4-ol], the “% inh of ERK1/2 phosphorylation in PANC-1” value is 0 (0% inhibition).
Same read-out and setting: to `COCCn1ccnc1-c1nc(O)c2scc(-c3ccncc3)c2n1` [Compound 94, 2-(1-(2-Methoxyethyl)-1H-imidazol-2-yl)-7-(pyridin-4-yl)thieno[3,2-d]pyrimidin-4-ol] belongs 0 (0% inhibition).
The same measure, in the same setting: the value for `Cc1cnc(-c2nc(O)c3scc(-c4ccccn4)c3n2)s1` [Compound 92, 2-(5-Methylthiazol-2-yl)-7-(pyridin-2-yl)thieno[3,2-d]pyrimidin-4-ol] was 0 (0% inhibition); that for `Cn1nccc1-c1nc(O)c2scc(-c3ccccn3)c2n1` [Compound 91, 2-(1-Methyl-1H-pyrazol-5-yl)-7-(pyridin-2-yl)thieno[3,2-d]pyrimidin-4-ol] was 0 (0% inhibition); that for `Oc1nc(-c2cccnc2)nc2c(-c3ccccn3)csc12` [Compound 89, 7-(Pyridin-2-yl)-2-(pyridin-3-yl)thieno[3,2-d]pyrimidin-4-ol] was “A (1-25% inhibition)”.
The same measure, in the same setting: the value for `COc1nc(-c2nccn2C)nc2c(-c3ncccc3F)csc12` [Compound 95, 7-(3-Fluoropyridin-2-yl)-4-methoxy-2-(1-methyl-1H-imidazol-2-yl)thieno[3,2-d]pyrimidine] was 0 (0% inhibition); that for `COc1ccn2c(-c3nc(O)c4scc(-c5ccccn5)c4n3)ncc2c1` [Compound 85, 2-(7-Methoxyimidazo[1,5-a]pyridin-3-yl)-7-(pyridin-2-yl)thieno[3,2-d]pyrimidin-4-ol] was 0 (0% inhibition); that for `COc1ccc2cnc(-c3nc(O)c4scc(-c5ccccn5)c4n3)n2c1` [Compound 86, 2-(6-Methoxyimidazo[1,5-a]pyridin-3-yl)-7-(pyridin-2-yl)thieno[3,2-d]pyrimidin-4-ol] was 0 (0% inhibition).

A further assay relates to PANC-1 pancreatic cancer cell line (KRAS G12D). Nature of the assay: Cell proliferation assay (CellTiter 96 Aqueous One). In kind it is cell-based. The following applies: Homo sapiens; PANC-1, 2-4 days, 10% FBS. Put shortly: (§1)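 Percent inhibition of proliferation is derived from MTS absorbance data. Cells seeded at 2000–5000 per well were grown overnight before treatment. Compounds, at 10 μM final or in dilution series, stayed on cells for 2–4 days in medium containing 10% FBS and 0.3% DMSO.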
For orientation: IC50 means the concentration at which inhibition is half-maximal. Lower therefore signals higher potency. As for `COCCn1c(-c2nc(O)c3scc(-c4ccccn4)c3n2)nc2ccccc21` [Compound 87, 2-(1-(2-Methoxyethyl)-1H-benzo[d]imidazol-2-yl)-7-(pyridin-2-yl)thieno[3,2-d]pyrimidin-4-ol], the IC50 is below 0.4 µM.

For another assay, the system named is SW-620 colorectal cancer cell line (KRAS G12V). Described as above. In kind it is cell-based. The following applies: Homo sapiens; SW-620, 2-4 days, 10% FBS. The method, boiled down: as §1
Molecule `COCCn1c(-c2nc(O)c3scc(-c4ccccn4)c3n2)nc2ccccc21` [Compound 87, 2-(1-(2-Methoxyethyl)-1H-benzo[d]imidazol-2-yl)-7-(pyridin-2-yl)thieno[3,2-d]pyrimidin-4-ol] had an IC50 below 0.4 µM.

(Values after patent publication US20230227466A1, “SUBSTITUTED THIENOPYRIMIDINES THAT INTERACT WITH THE RAS SUPERFAMILY FOR THE TREATMENT OF CANCERS, INFLAMMATORY DISEASES, RASOPATHIES, AND FIBROTIC DISEASE” (SHY Therapeutics, LLC, priority 2020, published 2023).)
